US20190365754A1, “METHOD OF ELIMINATING STEM CELLS” (Yissum Research Development Company Of The Hebrew …, priority 2014, published 2019)

Assays:
[1] = test system: beta catenin, p53, DNA damage response; assay: Stabilization of beta catenin and p53 and DNA damage response by CKI inhibitors
[2] = test system: WT BM cells; assay: 7AAD-/Annexin+ apoptosis assay, WT BM cells; type: cell-based, mouse; settings: FIG. 5D
Procedure: (§1) Freshly isolated bone marrow from CML carrying mice was mixed with normal mice bone marrow in a 1:1 ratio and grown in RPMI supplemented with 15% FCS L-Glutamine, Pen/Strep, Hepes, Sodium Pyruvate, non-essential amino acids (Beit Haemek). PF670462 inhibitor was dissolved in DMSO and added to the tissue culture medium at the indicated concentrations and 0.1% DMSO. As for control, the cells were treated with vehicle only. After 36-48 h, cells were harvested and counted manually using a camera and standard inverted light microscope. Dead cells were excluded using Trypan Blue (sigma). The number of normal and BCR-ABL expressing cells was later extrapolated according to FACS analysis of % GFP^+/7AAD^− expressing cells. AnnexinV-PE (MBL), 7AAD (Tonbo) staining was evaluated by FACS according to manufacturer's recommendation.

[3] = test system: leukemic cells; assay: 7AAD-/Annexin+ apoptosis assay, leukemic cells; type: cell-based, mouse; settings: FIG. 5D
Procedure: as §1

[4] = test system: normal BM cells; assay: In vitro inhibitor test, normal cell number in 1:1 mixed CML/normal bone marrow culture; type: cell-based, mouse; settings: increasing concentration of inhibitor
Procedure: as §1

[5] = test system: Wnt and p53 pathway; assay: Quantitative RT-PCR of p53 and Wnt targets in inhibitor-treated bone marrow cells; type: cell-based, mouse; settings: bone marrow cells treated in vitro; FIG. 5B
Procedure: as §1
Total RNA from cells was extracted using DirectZol RNA miniprep (Zymed). cDNA was generated using a poly(dT) oligonucleotides (IDT) and MMLV—Reverse Transcriptase (Invitrogen) and amplified on a 7900HT Real Time PCR System (Applied Biosystems) using Platinum® SYBR® Green (Invitrogen) according to the manufacturer's instructions. At least triplicate reactions were performed for each gene. Melting curve analysis was performed after each run to control for the nonspecific PCR products and primer dimers. […]

[6] = test system: BCR-ABL expressing (GFP+) leukemic cells; assay: In vitro inhibitor test, leukemic cell number in 1:1 mixed CML/normal bone marrow culture; type: cell-based; settings: increasing concentration of inhibitor
Procedure: as §1

[7] = test system: leukemia initiating cells (LIC); assay: BCR-ABL CML blast crisis mouse model, in vivo treatment
Procedure: To generate the BCR-ABL-inducible CML model, BM cells from MxCre^− Ck1α1^fl/fl or MxCre^+ Ck1 α1^fl/fl were extracted and enriched for cKit expressing cells (EasySep #18757) and incubated overnight in RPMI supplemented with 15% FCS L-Glutamine, Pen/Strep (Beit Haemek) and stem cell factor (SCF), IL-3, IL-6 and TPO (Peprotech). The culture was then infected with p210BCR-ABL-IRES-GFP retrovirus construct containing supernatant medium for 4 hours and returned to medium for additional 24 h. The culture was then injected I.V. into sub-lethally irradiated (500 rad) mice. Upon detectable steady increase of GFP expressing cells in the mice peripheral blood (by FACS) and rise in leukocyte numbers and immature cells (detected by Wright-Giemsa stained blood films) the mice were sacrificed and their bone marrow was transferred to sub-lethally irradiated WT hosts.
Each such transfer was termed disease generation. By the fourth transfer, the hosts were no longer sub-lethally irradiated prior to disease transfer and the time between generations was shorter (usually 10 days). Blast crisis development was easily detectable by the highly abnormal number of blast cells (more than 30% of WBC in PB) and the shortening time between transfers. The experimental procedure is illustrated in FIG. 3. Experiments were performed on late generation diseases in which blasts were easily detectable, no irradiation of hosts was necessary and the generation time was short (up to 14 days). Mice were monitored daily for cachexia, lethargy, and ruff coats, paralysis and moribund mice were sacrificed.
(§2) The PF670462 was dissolved in 20% 2-hydroxypropyl β-cyclodextrin (vehicle) and administered by daily I.P. of 60 mg/Kg starting 7 hour after disease transfer. The control mice were treated with the vehicle only.

[8] = test system: β-catenin, p53, c-Myc; assay: Western blot of bone marrow from inhibitor-treated CML carrying mice; type: in vivo, mouse; settings: daily i.p. 60 mg/Kg; FIG. 6B
Procedure: as §2
Whole cell lysate were extracted in the presence of protease and phosphatase inhibitors from the bone marrow of CML carrying mice treated with either vehicle or PF670462.
Protein extracts, separated by […] and transferred onto nitrocellulose membranes, were probed with antibodies against beta-catenin, c-Myc, p53 and HSP90. Proteins of interest were detected with HRP-conjugated Donkey/Rabbit anti-mouse IgG antibody (1:5000. GE Healthcare, Uppsala, Sweden) and visualized with the Pierce ECL Western blotting substrate (Thermo Scientific, Rockford, Ill.), according to the provided protocol.

[9] = bone marrow of inhibitor-treated mice transplanted to lethally irradiated mice, one month after transplantation

SMILES: NCCNS(=O)(=O)c1ccc(Cl)c2ccncc12 [CKI7]
- induction of a DNA damage response [1]: nor do they induce a DNA damage response
- stabilization of beta catenin and p53 [1]: none of these agents stabilize beta catenin and p53

SMILES: NC(=O)c1ccc(-c2nc(-c3ccc4c(c3)OCCO4)c(-c3ccccn3)[nH]2)cc1 [D4476]
- induction of a DNA damage response [1]: nor do they induce a DNA damage response
- stabilization of beta catenin and p53 [1]: none of these agents stabilize beta catenin and p53

SMILES: Nc1nccc(-c2c(-c3ccc(F)cc3)ncn2C2CCCCC2)n1 [PF670462]
- apoptotic cell rate (7AAD-/Annexin+) [2]: not significantly effected
- apoptotic cell rate (7AAD-/Annexin+) [3]: increase in apoptotic cell rate under the inhibitor treatment in a dosage dependent manner
- normal BM cell number [4]: only slightly reduced
- expression of Wnt and p53 targets (RT-PCR) [5]: upregulation of Wnt and p53 in a dose dependent manner
- decline in leukemic cell number [6]: much more prominent
- bone marrow reconstitution of secondary recipients (LT-HSC integrity) [7, 9]: fully reconstitute
- leukemia GFP+ cells in peripheral blood of secondary recipients [7, 9]: no evidence of leukemia GFP+ cells
- GFP+ leukemic cells in peripheral blood ([7]; daily i.p. 60 mg/Kg starting 7 hour after disease transfer, FIG. 6C): almost undetectable
- bone marrow / vertebrate histology ([7]; daily i.p. 60 mg/Kg, FIG. 6D): normal bone marrow appearance with intact vertebrates
- blasts in peripheral blood ([7]; daily i.p. 60 mg/Kg, FIG. 6E): no blast were detected
- survival of leukemic mice ([7]; daily i.p. 60 mg/Kg, vehicle group died within 12 days, FIG. 6F): remained alive
- β-catenin, p53 and c-Myc protein in bone marrow (Western blot) [8]: stabilization of β-catenin and p53 and induction of the Wnt target gene c-Myc

SMILES: COc1cc(OC)c(C=C2C(O)=Nc3ccccc32)c(OC)c1 [IC261]
- induction of a DNA damage response [1]: nor do they induce a DNA damage response
- stabilization of beta catenin and p53 [1]: none of these agents stabilize beta catenin and p53
